Source: patent US10576096B2, “Tumor-selective combination therapy” (priority 2013, dated 2020)
In brackets after ≈: the same amount, converted by molar mass. Several values for one entry are separate records, joined by “and”; a condition that tells them apart may be missing. Equal values may be shown once.

Experiments:
A549 NSCLC cells = assay: ß-lapachone nontoxic vs. lethal dose, 2 h; type: cell-based, human
Method: FIGS. 46A-B. DNA damage via combinatorial treatment. (A) A549 NSCLC cells were pre-treated with or without Rucaparib (AG014699) and then exposed to a nontoxic dose of ß-lapachone (3 μM) at the concentrations indicated with or without the same PARP1 inhibitor. Cells were also exposed to a lethal dose of ß-lapachone (8 μM). Cells were then analyzed by neutral comet assays and DNA damage graphed in (B).
A459 NSCLC cells were pretreated with 15 μM AG014699 for 2 hours, then exposed to the same concentration of AG014699+various concentrations of DNQ87 for 2 hours as indicated (FIG. 45). Cells were then washed free of drug and relative survival performed as previously described (Huang et al., Cancer Res., 2012). Cells treated in this manner by nontoxic doses of ß-lap show enhanced DNA lesion formation, equivalent to DNA lesions formed by a lethal dose of ß-lap (8 μM, 2 hours) (FIG. 46).

Mia PaCa-2 cells = assay: ß-lapachone lethal vs. sublethal doses, 2 h treatment; type: cell-based; conditions: listed as ß-lapachone
Method: MeOX, 12 mM; Dicoumarol, NQO1 inhibitor, 50 μM; ß-lapachone doses, indicated or 2 μM. For Mia Paca2 cells, 2-2.5 μM is sublethal, 6 μM is lethal. H2O2 dose was 500 μM, 2 h. All treatments were 2 h in duration. Cells were treated 2× with MeOX, as a 2 h pretreatment and then for 2 h in combination with ß-lap where applicable.
Addition of Methoxyamine (MeOX) prevents ATP recovery responses in ß-lap-treated Mia PaCa-2 cells at lethal and sublethal doses (FIG. 24). Lethal doses of ß-lapachone were 6 and 4 μM, whereas 3.0 and 2.5 μM are sublethal doses of ß-lapachone (ß-lap).

[1] = tested on: MIA PaCa-2 tumor xenografts; assay: Antitumor efficacy in tumor xenografts; type: in vivo, mice; conditions: β-lap-HPβ-CD at 20 or 30 mg/kg, iv
Method: (A) Body weight changes of mice bearing orthotopic MIA PaCa-2 tumors. (B) Kaplan-Meier survival for pancreatic antitumor efficacy experiments described in (A). Log-rank analyses were performed comparing survival curves (***p<0.0001) for HPβ-CD vs. β-lap-HPβ-CD at 20 or 30 mg/kg, iv. Results are combined survival data from three similar experiments. (C) Bioluminescent images (BLI) of mice bearing spleen-implanted pancreas cancers before and after treatment with HPβ-CD or β-lap-HPβ-CD (Arq761) at 20 or 30 mg/kg, iv. (D) Quantification of pancreatic tumor burden. BLI (photons per second) were determined before and 12 days post-therapy with HPβ-CD or β-lap-HPβ-CD at 20 or 30 mg/kg, iv. Results are means, +SE (n=5). Student's t tests (***p<0.005) were performed comparing HPβ-CD vs. β-lap-HPβ-CD at 20 or 30 mg/kg, iv. V, Vehicle (HPβ-CD).
Altering BER or SSB repair can enhance NQO1 bioactivatable drug efficacy in a tumor-selective manner. siRNA-mediated knockdown of the Ogg1 glycosylase renders s-lap-treated pancreatic cancer cells resistant to ß-lapachone (FIG. 6), however NQO1 bioactivatable drugs cause SSBs and base lesions in a tumor-specific manner, thus they can be used to make DNA repair inhibitors tumor-selective (FIG. 7). PARP1 inhibitors synergize with NQO1 bioactivatable drugs for enhanced efficacy in NQO1+ cancer cells, such as pancreatic cancer cells (FIG. 8). […]

NQO1 = NQO1 (Homo sapiens, UniProt P15559); conditions: in two minutes; cited from earlier work
in vivo = conditions: NOD/SCID, mouse, iv
[2] = tested on: NOD/SCID mice injected with 3LL-Luc cells; assay: DNQ derivatives pilot study of maximum tolerated dose (MTD); conditions: 3 NOD/SCID mice
breast cancer cells = assay: IB-DNQ (DNQ87) lethality in breast cancer cells; type: cell-based; conditions: NQO1-dependent
Excerpt: It is effective against breast cancer cells in an NQO1-dependent manner, as well as triple-negative breast cancer cells (A-F, for various cell types).
Unlike β-lapachone (ß-lap), efficacy of DNQ87 increases in an NQO1-dependent manner and the therapeutic window is larger (FIG. 14). […] (C) PARP1 hyperactivation caused by DNQ87 exposure measured by PAR-PARP1 formation, highlighted by μ-calpain-mediated p53 cleavage (C) and atypical cleavage of PARP1 to ^˜60 kDa proteolytic fragments during cell death (D). DNQ87 also causes DNA lesions (DNA double strand breaks) in a delayed manner, monitored by gamma-H2AX, phosphorylation of ATM at ser1981, and phosphorylation of DNA-PKcs at site Thr1892 (FIG. 16).

[3] = tested on: Mia Paca2 pancreatic cancer cells; assay: Methoxyamine plus ß-lapachone lethality (colony forming assays); type: cell-based; conditions: nonlethal doses of methoxyamine
Method: FIGS. 9A-F. Methoxyamine (MeOX) enhances β-lap-induced NQO1-driven lethality. Mia Paca-2 cells were treated with indicated doses of β-lap+/−MeOX (12 mM), or β-lap alone for 2 hours. Endpoints examined: (A) Colony forming assays show synergy of MeOX+ß-lap; (B) MeOX treatment modifies AP sites induced by β-lap in Mia Paca-2 cells; (C) MeOX enhances β-lap-induced ATP loss; (D) MeOX blocks ATP recovery after sublethal β-lap doses; (E) β-lap+MeOX co-treatment enhances γH2AX foci formation. […] Dicoumarol (DIC, 50 μM, 2 h) blocked synergy.
(§1) B and C, Methoxyamine (MeOX) is an AP-site modifying chemical that is nontoxic to >100 mM as measured by relative survival and ATP loss. Optimal concentrations in combination with NQO1 bioactivatable drugs are between 6-12 mM. FIG. 21 illustrates Proof of Principle studies. A. Methoxyamine (MeOX) augments ß-lapachone ß-lap)-induced lethality in MiaPaca2 pancreatic cancer cells. B. Addition of MeOX modifies AP sites and therefore decreases signal of AP site formation in ß-lap+MeOX exposed cells. MeOX dose was 12 mM, ß-lap Dose was 6 μM. C,D. XRCC1 is a scaffolding protein that enables base excision repair (BER). Elimination of XRCC1 causes elevated AP sites and DNA single strand breaks, at which PARP1 can bind and become activated/hyperactivated. Knockdown of XRCC1 (C) enhances the lethality of ß-lapachone treatment.

[4] = tested on: Mia Paca2 pancreatic cancer cells; assay: Methoxyamine alone: relative survival and ATP loss; type: cell-based
Method: FIGS. 20A-C. Determination of lethal vs. sublethal doses of methoxyamine (MeOX or MX, as indicated); A, MeOX with β-lapachone; B, MeOX; C, MeOX.
as §1

[5] = tested on: A549 NSCLC cells or MiaPaCa-2 pancreatic cancer cells; assay: Sensitivity enhancement: PARP1 inhibitors combined with β-lapachone or DNQ, relative survival; type: cell-based, human; conditions: 10 = one log kill, 100 = two logs kill; for Sensitivity Enhancement (change in survival) with Deoxynyboquinone (DNQ): nontoxic DNQ (0.02 μM A549, 0.025 μM MiaPaca-2) + optimal dose (15 μM) of PARP1 inhibitor; for Sensitivity Enhancement (change in survival) with β-Lapachone: nontoxic β-lapachone (3 μM A549, 2 μM Mia Paca2) + optimal dose (15 μM) of PARP1 inhibitor
Method: Mia PaCa-2 cells were treated for 2 hours with the inhibitors noted in FIG. 30 and then with DNQ+the inhibitors (all at 15 μM) for 2 hours.

BRCA1−/− CAPAN-1 cells = assay: AG014699 alone, synthetic lethality control; type: cell-based
[6] = tested on: A549 and Mia PaCa-2 cells; assay: AG014699 alone, lethality in BRCA1 wild-type cancer cells; type: cell-based; conditions: drug alone
Excerpt: FIGS. 33A-D. AG014699 enhances the NQO1-dependent lethality of ß-lapachone in A549 NSCLC cells.
AG014699 enhances the NQO1-dependent lethality of ß-lapachone in A549 NSCLC cells (FIG. 33).

PARP1 = assay: PAR formation (PARP1 inhibition) in cells treated with NQO1 bioactivatable drug plus inhibitor; type: cell-based; conditions: inhibitors at 15 μM
[7] = tested on: NOD/SCID mice injected with 3LL-Luc cells; conditions: mouse, in vivo, iv
[8] = Formulation of DNQ compounds in HPβCD (solubility, solution stability); type: physicochemical
Excerpt: This same neutral solution of DNQ in HPβCD cannot be made directly (i.e. without pH adjustment). […] The only proton on DNQ that might reasonably be deprotonated in aqueous base is the N—H. Although the acidity of the N—H bond of DNQ has not been measured, it has been measured for a derivative of DNQ and found to have a pKa of 8.0.
The protocol for formulating DNQ compounds in HPβCD is as follows: the DNQ compound is slurried in a 20% solution of HPβCD in pH 7.4 PBS and the pH is then increased by the addition of 10 M NaOH to induce dissolution of the DNQ compound. The pH is returned to pH 7.5-8.0 by the careful addition of 1 M HCl. A 3.3 mM solution of the DNQ compound can be made by this method which is stable at least 24 hours. This represents a 30-fold increase in solubility of DNQ over PBS alone. We initially chose a 20% HPβCD solution.

[9] = Aqueous solubility in PBS pH 7.4 by LC-MS; type: physicochemical; conditions: pH 7.4 PBS, 30 min sonication, filtered
Method: The aqueous solubility of DNQ at pH 7.4 in phosphate buffered saline (PBS) was measured by LC-MS. DNQ was sonicated for 30 minutes in PBS then undissolved solid was removed by filtration through a 0.45 μm syringe filter and the filtrate was analyzed by LC-MS (λ=275 nm, ESI-TOF in negative mode). The optimal sonication time was determined by sonicating DNQ for 1, 5, 10, and 30 minutes. While the concentration of DNQ in solution increased substantially between 1, 5, and 10 minutes, there was only a minor difference between 10 and 30 minutes. During the 30 minute sonication the water bath warmed to 45° C. (samples were cooled to room temperature before filtration). A calibration curve was generated from 1-100 μM by dissolving DNQ in methanol to a concentration of 500 μM and making dilutions of this stock in 80:20 water:methanol. The calibration curve (measure by UV absorbance) was linear over this range; 1 μM was approximately the limit of detection. […] The solution was very pale yellow.

Chain of NQO1 (P15559 whole entry): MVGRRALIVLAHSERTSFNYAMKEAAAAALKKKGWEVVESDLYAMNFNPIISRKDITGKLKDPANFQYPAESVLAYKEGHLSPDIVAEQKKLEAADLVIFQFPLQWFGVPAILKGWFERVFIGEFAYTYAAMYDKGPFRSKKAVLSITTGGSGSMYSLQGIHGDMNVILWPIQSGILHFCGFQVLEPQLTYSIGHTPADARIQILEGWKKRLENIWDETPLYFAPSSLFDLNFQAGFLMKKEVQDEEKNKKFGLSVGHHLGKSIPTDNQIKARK

CC1(C)CCC2=C(O1)c1ccccc1C(=O)C2=O [β-Lapachone, β-lapachone]
nontoxic dose (A549 NSCLC cells): 3 µM | lethal dose (A549 NSCLC cells; 2 hours): 8 µM | sublethal dose (Mia PaCa-2 cells): 2 to 2.5 µM and 3.0 µM and 2.5 µM | antitumor efficacy [1]: significant antitumor efficacy | superoxide generated per mole of compound (NQO1): ~120 mol

CCCn1c2c(c(C)cc1=O)C(=O)c1c(C)cc(=O)[nH]c1C2=O [Compound 10-41]
MTD at 5 injections, 1x every other day (in vivo): 7 mg/kg | Dead mice (5 IV.) ([2]; 15 mg/kg): 3

Cc1cc(=O)[nH]c2c1C(=O)c1c(C)cc(=O)n(CC(C)C)c1C2=O [Compound 87]
effective doses relative to ß-lapachone and DNQ (breast cancer cells): works at much lower doses versus ß-lapachone and at doses equivalent to the parental DNQ compound | MTD at 5 injections, 1x every other day (in vivo): ~16 mg/kg | Dead mice (5 IV.) ([2]; 14 mg/kg): 0

CON [Methoxyamine, methoxyamine]
lethality in combination with ß-lapachone [3]: synergistic lethality | optimal concentration in combination with NQO1 bioactivatable drugs [4]: 6 to 12 mM | nontoxic concentration ([4]; measured by relative survival and ATP loss): > 100 mM

CN(C)Cc1ccc(-c2nc3cccc4c3n2CCNC4=O)cc1 [AG14361]
Sensitivity Enhancement (change in survival) with Deoxynyboquinone (DNQ) [5]: 10 | Sensitivity Enhancement (change in survival) with β-Lapachone [5]: 5

CNCc1ccc(-c2[nH]c3cc(F)cc4c3c2CCNC4=O)cc1 [AG-014699, Rucaparib]
Sensitivity Enhancement (change in survival) with Deoxynyboquinone (DNQ) [5]: 100 | Sensitivity Enhancement (change in survival) with β-Lapachone [5]: 10 | lethality of drug alone (BRCA1−/− CAPAN-1 cells): synthetic lethality | response of BRCA1 wild-type cells to the PARP1 inhibitor alone [6]: completely resistant

CCc1cc(=O)n(C)c2c1C(=O)c1c(C)cc(=O)[nH]c1C2=O [Compound 107]
MTD at 5 injections, 1x every other day (in vivo): 8 mg/kg | Dead mice (5 IV.) ([2]; 10 mg/kg): 1

NC(=O)c1ccc(I)c([N+](=O)[O-])c1 [BSI-201, Iniparib]
Sensitivity Enhancement (change in survival) with Deoxynyboquinone (DNQ) [5]: 4 | Sensitivity Enhancement (change in survival) with β-Lapachone [5]: 3 | inhibition of PAR formation (PARP1): not an efficacious PARP1 inhibitor

C[C@]1(c2nc3c(C(N)=O)cccc3[nH]2)CCCN1 [ABT-888, Veliparib]
Sensitivity Enhancement (change in survival) with Deoxynyboquinone (DNQ) [5]: 15 | Sensitivity Enhancement (change in survival) with β-Lapachone [5]: 10

O=c1[nH]cnc2c1ncn2[C@@H]1O[C@H](CO)[C@@H](O)[C@H]1O [INO-1001]
Sensitivity Enhancement (change in survival) with Deoxynyboquinone (DNQ) [5]: 10 | Sensitivity Enhancement (change in survival) with β-Lapachone [5]: 7

Cc1cc(=O)[nH]c2c1C(=O)c1c(C)cc(=O)n(CCC(C)(C)C)c1C2=O [Compound 9-251]
MTD at 5 injections, 1x every other day (in vivo): 20 mg/kg | Dead mice (5 IV.) ([2]; 20 mg/kg): 0

O=C(c1cc(Cc2n[nH]c(=O)c3ccccc23)ccc1F)N1CCN(C(=O)C2CC2)CC1 [AZD2281, Olaparib]
Sensitivity Enhancement (change in survival) with Deoxynyboquinone (DNQ) [5]: 20 | Sensitivity Enhancement (change in survival) with β-Lapachone [5]: 10

Cc1cc(=O)[nH]c2c1C(=O)c1c(C)cc(=O)n(C)c1C2=O [DNQ, Deoxynyboquinone]
MTD [7]: 6 | stability of HPβCD solution ([8]; 3.3 mM in 20% HPβCD): at least 24 hours | increase in solubility over PBS alone ([8]; 20% HPβCD): 30 fold | concentration of solution in HPβCD ([8]; 20% HPβCD in pH 7.4 PBS, pH raised with NaOH then returned to 7.5-8.0): 3300 µM | concentration of solution in HPβCD ([8]; 40% HPβCD, extrapolated from linear increase with HPβCD): 6600 µM | solubility in PBS [9]: 115 µM (≈ 32.7 µg/mL) | Dead mice (5 IV.) ([2]; 7.5 mg/kg): 2
